This assay concerns the target human GPR43 (Homo sapiens (Human), UniProt O15552). Description: Ca-Flux functional assay: determination of agonist/positive allosteric modulator (PAM) activity. Format: cell-based. The conditions noted are these: CHO-K1 Gα16 cells stably expressing human GPR43; compound added with EC20 sodium acetate; intracellular Ca2+ by FLIPR; does not distinguish agonist from PAM. The method, then: Ca-Flux Functional Assay: Determination of Agonist/Positive Allosteric Modulator (PAM) Activity
GPR43 agonist/PAM activity was determined by measuring changes in intracellular calcium levels using a Ca^2+ sensitive fluorescent dye. The changes in fluorescent signal were monitored by FLIPR (manufactured by Molecular Devices). GPR43 mediated increases in intracellular Ca^2+ concentration were readily detected upon activation with sodium acetate. Prior to the assay (24 hours), CHO-K1 Gα16 cells stably expressing human GPR43 were-seeded in cell culture medium in black, clear-bottom 384-well plates (Corning Inc) and grown overnight at 37° C., 5% CO2. On the day of the assay, cell culture media was removed and cells were loaded with Calcium 5 Dye (Molecular Devices) diluted in HBSS containing 25 mM HEPES, 2.5 mM Probenecid, 0.1% BSA for 1 hour at 37° C., 5% CO2. 10 point half log concentration response curves of sodium acetate from 10 mM were conducted prior to the testing of compounds to calculate the sodium acetate concentration that produces 20% of the maximal response (EC20). Test compounds (at 10 point half log concentration response curves from 10 μM) were added in the presence of sodium acetate to achieve a final concentration that produces approximately 20% maximal response as calculated from the previous experiment. The changes in fluorescent signal were monitored by FLIPR upon addition of the compound/EC20 sodium acetate mix. The EC50 values were determined from ten point concentration response curves. Curves were generated using the average of two wells for each data point.
The above assay detects both GPR43 receptor agonists and positive allosteric modulators of the GPR43 receptor, without distinguishing between the two. Activity in either regard is useful in the treatment of conditions associated with GPR43 receptor activity.
Chain of human GPR43 (O15552 whole entry): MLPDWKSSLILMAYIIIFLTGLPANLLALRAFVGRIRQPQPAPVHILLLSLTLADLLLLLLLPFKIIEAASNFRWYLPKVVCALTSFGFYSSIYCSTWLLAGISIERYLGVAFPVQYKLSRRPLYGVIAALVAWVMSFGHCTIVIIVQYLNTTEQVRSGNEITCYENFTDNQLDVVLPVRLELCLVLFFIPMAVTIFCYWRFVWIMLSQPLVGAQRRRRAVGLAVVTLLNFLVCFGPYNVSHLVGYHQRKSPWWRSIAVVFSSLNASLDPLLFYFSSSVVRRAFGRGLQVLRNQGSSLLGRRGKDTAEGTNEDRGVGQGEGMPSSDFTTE
As a reminder, the EC50 is the midpoint of the concentration-response curve. Higher therefore signals a less potent agent. On to `CC(C)CC1CN(c2ncnc3c(S(=O)(=O)c4ccccc4)c(N)[nH]c23)CCO1` (centres unmarked) [Example 101, 7-(benzenesulfonyl)-4-[2-(2-methylpropyl)morpholin-4-yl]-5H-pyrrolo[3,2-d]pyrimidin-6-amine], for which the EC50 stood at 0.031 µM. That is a double-digit nanomolar value.

For the compound `Cc1nc(N2C[C@@H](C)O[C@@H](C)C2)c2[nH]c(N)c(S(=O)(=O)c3ccccc3)c2n1` [Example 138, 7-(benzenesulfonyl)-4-[(2R,6S)-2,6-dimethylmorpholin-4-yl]-2-methyl-5H-pyrrolo[3,2-d]pyrimidin-6-amine], a half-maximal response (EC50) required 0.006 µM.

The compound `Cc1ccc(S(=O)(=O)c2c(N)[nH]c3c(C4=CCCCC4)ncnc23)cc1` [Example 42, 4-(cyclohex-1-en-1-yl)-7-[(4-methylbenzene)sulfonyl]-5H-pyrrolo[3,2-d]pyrimidin-6-amine] registered an EC50 of 0.032 µM.

Compound `Cc1nc(N2CCOC(C)(C)C2)c2[nH]c(N)c(S(=O)(=O)c3ccc(F)cc3F)c2n1` [Example 278, 7-(2,4-difluorobenzenesulfonyl)-4-(2,2-dimethylmorpholin-4-yl)-2-methyl-5H-pyrrolo[3,2-d]pyrimidin-6-amine] had an EC50 of 0.006 µM.

Compound `Cc1nc(N2CCO[C@H](C(F)(F)F)C2)c2[nH]c(N)c(S(=O)(=O)c3ccc(F)cc3F)c2n1` [Example 283, 7-(2,4-difluorobenzenesulfonyl)-2-methyl-4-[(2S)-2-(trifluoromethyl)morpholin-4-yl]-5H-pyrrolo[3,2-d]pyrimidin-6-amine] showed an EC50 of 0.001 µM.

`Nc1[nH]c2c(OCC3CCOCC3)ncnc2c1S(=O)(=O)c1ccccc1` [Example 169, 7-(benzenesulfonyl)-4-(oxan-4-ylmethoxy)-5H-pyrrolo[3,2-d]pyrimidin-6-amine]: the EC50 came out at 1.89 µM.

`Cc1nc(N2CCO[C@@H](C(F)(F)F)C2)c2[nH]c(N)c(S(=O)(=O)c3c(F)cccc3F)c2n1` [Example 295, 7-(2,6-difluorobenzenesulfonyl)-2-methyl-4-[(2R)-2-(trifluoromethyl)morpholin-4-yl]-5H-pyrrolo[3,2-d]pyrimidin-6-amine]: it took 0.003 µM to reach a half-maximal effect (EC50).

The compound `Cc1nc(N2C[C@@H](C)OC[C@H]2C)c2[nH]c(N)c(S(=O)(=O)c3ccccc3)c2n1` [Example 217, 7-(benzenesulfonyl)-4-[(2R,5R)-2,5-dimethylmorpholin-4-yl]-2-methyl-5H-pyrrolo[3,2-d]pyrimidin-6-amine] displayed an EC50 of 0.006 µM.

For `Nc1[nH]c2c(OCC3CC3(F)F)ncnc2c1S(=O)(=O)c1ccccc1` (centres unmarked) [Example 175, 7-(benzenesulfonyl)-4-[(2,2-difluorocyclopropyl)methoxy]-5H-pyrrolo[3,2-d]pyrimidin-6-amine], the EC50 worked out at 0.373 µM.

`Nc1[nH]c2c(C3=CCCCC3)nccc2c1S(=O)(=O)c1ccccc1` [Example 18, 3-(benzenesulfonyl)-7-(cyclohex-1-en-1-yl)-1H-pyrrolo[2,3-c]pyridin-2-amine] came in with an EC50 of 0.528 µM. The EC50 values of the last two compounds are within 1.5-fold of each other.

`CC1CN(c2nc(C(F)(F)F)nc3c(S(=O)(=O)c4cccc(F)c4)c(N)[nH]c23)CCO1` (centres unmarked) [Example 265, 7-(3-fluorobenzenesulfonyl)-4-(2-methylmorpholin-4-yl)-2-(trifluoromethyl)-5H-pyrrolo[3,2-d]pyrimidin-6-amine] registered an EC50 of 0.068 µM.

The compound `COc1ccc(S(=O)(=O)c2c(N)[nH]c3c(N4CCOC(C)(C)C4)ncnc23)cc1` [Example 129, 4-(2,2-dimethylmorpholin-4-yl)-7-(4-methoxybenzenesulfonyl)-5H-pyrrolo[3,2-d]pyrimidin-6-amine] came in with an EC50 of 0.033 µM. Compared with the last compound, the EC50 is about 2.1-fold lower.

`CC[C@@H](C)Oc1nc(C)nc2c(S(=O)(=O)c3ccccc3)c(N)[nH]c12` [Example 244, 7-(benzenesulfonyl)-4-[(2R)-butan-2-yloxy]-2-methyl-5H-pyrrolo[3,2-d]pyrimidin-6-amine] displayed an EC50 of 0.031 µM.

As for `Nc1[nH]c2c(N3CC4CCC(C3)O4)ncnc2c1S(=O)(=O)c1ccccc1` [Example 132, 7-(benzenesulfonyl)-4-{8-oxa-3-azabicyclo[3.2.1]octan-3-yl}-5H-pyrrolo[3,2-d]pyrimidin-6-amine], the 50% effective concentration (EC50) was found to be 1.51 µM.

Consider `Cc1cccc(S(=O)(=O)c2c(N)[nH]c3c(N4CCOC(C)C4)ncnc23)c1` (centres unmarked) [Example 121, 7-(3-methylbenzenesulfonyl)-4-(2-methylmorpholin-4-yl)-5H-pyrrolo[3,2-d]pyrimidin-6-amine], for which it took 0.067 µM to reach a half-maximal effect (EC50). Against the preceding compound, the EC50 is about 23-fold lower.

The compound `Nc1[nH]c2c(C3=CCCCC3)ncnc2c1S(=O)(=O)c1ccc(OC(F)F)cc1` [Example 33, 4-(cyclohex-1-en-1-yl)-7-{[4-(difluoromethoxy)benzene]sulfonyl}-5H-pyrrolo[3,2-d]pyrimidin-6-amine] had a concentration for a half-maximal effect (EC50) of 0.052 µM. This EC50 and that of the compound before are within 1.5-fold of each other.

The compound `CNc1[nH]c2c(C3CCCCC3)ncnc2c1S(=O)(=O)c1ccccc1` [Example 35, 7-(benzenesulfonyl)-4-cyclohexyl-N-methyl-5H-pyrrolo[3,2-d]pyrimidin-6-amine] registered an EC50 of 7.52 µM.

In turn, `Cc1nc(N2CCO[C@@H](C)C2)c2[nH]c(N)c(S(=O)(=O)c3ccccc3F)c2n1` [Example 218, 7-(2-fluorobenzenesulfonyl)-2-methyl-4-[(2S)-2-methylmorpholin-4-yl]-5H-pyrrolo[3,2-d]pyrimidin-6-amine] came in with a concentration for a half-maximal effect (EC50) of 0.002 µM.

For the compound `Nc1[nH]c2c(OCC3CCCC3)ncnc2c1S(=O)(=O)c1ccccc1` [Example 201, 7-(benzenesulfonyl)-4-(cyclopentylmethoxy)-5H-pyrrolo[3,2-d]pyrimidin-6-amine], the EC50 was 0.05 µM.

Consider `Cc1nc(OC2CCCC2)c2[nH]c(N)c(S(=O)(=O)c3ccccc3)c2n1` [Example 257, 7-(benzenesulfonyl)-4-(cyclopentyloxy)-2-methyl-5H-pyrrolo[3,2-d]pyrimidin-6-amine], for which a half-maximal effect (EC50) was put at 0.1 µM.

`Cc1nc(N2CCC3(CC2)CC3)c2[nH]c(N)c(S(=O)(=O)c3ccccc3F)c2n1` [Example 214, 4-{6-azaspiro[2.5]octan-6-yl}-7-(2-fluorobenzenesulfonyl)-2-methyl-5H-pyrrolo[3,2-d]pyrimidin-6-amine] yielded an EC50 of 0.009 µM. Compared with the last compound, the EC50 is about 11-fold lower.

For the compound `CCN(CC)c1ncnc2c(S(=O)(=O)c3ccccc3)c(N)[nH]c12` [Example 94, 7-(benzenesulfonyl)-4-N,4-N-diethyl-5H-pyrrolo[3,2-d]pyrimidine-4,6-diamine], the EC50 stood at 0.061 µM.

The compound `COC(=O)Nc1[nH]c2c(C3=CCCCC3)ncnc2c1S(=O)(=O)c1ccccc1` [Example 17, Methyl-N-[7-(benzenesulfonyl)-4-(cyclohex-1-en-1-yl)-5H-pyrrolo[3,2-d]pyrimidin-6-yl]carbamate] gave an EC50 of 5.09 µM.

For the compound `Cc1nc(N2CCC3(CC2)CC3)c2[nH]c(N)c(S(=O)(=O)c3ccccc3)c2n1` [Example 207, 4-{6-azaspiro[2.5]octan-6-yl}-7-(benzenesulfonyl)-2-methyl-5H-pyrrolo[3,2-d]pyrimidin-6-amine], the concentration giving a half-maximal response (EC50) was 0.027 µM.

Compound `Cc1nc(N2CCOC(C)C2)c2[nH]c(N)c(S(=O)(=O)c3cccc(F)c3F)c2n1` (centres unmarked) [Example 182, 7-(2,3-difluorobenzenesulfonyl)-2-methyl-4-(2-methylmorpholin-4-yl)-5H-pyrrolo[3,2-d]pyrimidin-6-amine] yielded an EC50 of 0.006 µM.

For the compound `Nc1[nH]c2c(N3CCCCC3)ncnc2c1S(=O)(=O)c1ccccc1` [Example 7, 7-(benzenesulfonyl)-4-(piperidin-1-yl)-5H-pyrrolo[3,2-d]pyrimidin-6-amine], a half-maximal effect (EC50) was put at 0.047 µM.

Regarding `Cc1nc(N2CCO[C@@H](C(F)(F)F)C2)c2[nH]c(N)c(S(=O)(=O)c3cccc(F)c3F)c2n1` [Example 286, 7-(2,3-difluorobenzenesulfonyl)-2-methyl-4-[(2R)-2-(trifluoromethyl)morpholin-4-yl]-5H-pyrrolo[3,2-d]pyrimidin-6-amine], the EC50 was found to be 0.003 µM.

`Cc1nc(COc2ncnc3c(S(=O)(=O)c4ccccc4)c(N)[nH]c23)c(C)o1` [Example 163, 7-(benzenesulfonyl)-4-[(dimethyl-1,3-oxazol-4-yl)methoxy]-5H-pyrrolo[3,2-d]pyrimidin-6-amine] showed a half-maximal effective concentration (EC50) of 6.26 µM.

Compound `Cc1nc(OC(C)C2CC2)c2[nH]c(N)c(S(=O)(=O)c3ccccc3)c2n1` (centres unmarked) [Example 230, 7-(benzenesulfonyl)-4-(1-cyclopropylethoxy)-2-methyl-5H-pyrrolo[3,2-d]pyrimidin-6-amine] registered a concentration giving a half-maximal response (EC50) of 0.022 µM.

Turning to `Nc1[nH]c2c(OC3CCC3)ncnc2c1S(=O)(=O)c1ccccc1` [Example 167, 7-(benzenesulfonyl)-4-cyclobutoxy-5H-pyrrolo[3,2-d]pyrimidin-6-amine], a half-maximal response (EC50) required 0.076 µM. Compared with the last compound, the EC50 is about 3.5-fold higher.

With `CSc1nc(N2CCOC(C)C2)c2[nH]c(N)c(S(=O)(=O)c3ccccc3)c2n1` (centres unmarked) [Example 238, 7-(benzenesulfonyl)-4-(2-methylmorpholin-4-yl)-2-(methylsulfanyl)-5H-pyrrolo[3,2-d]pyrimidin-6-amine], the EC50 amounted to 0.018 µM.

Regarding `Nc1[nH]c2c(C3=CCCCC3)ncnc2c1Sc1ccccc1` [Example 135, 4-(cyclohex-1-en-1-yl)-7-(phenylsulfanyl)-5H-pyrrolo[3,2-d]pyrimidin-6-amine], the midpoint of the response, the EC50, lay at 0.235 µM.

Source of the values: patent US10059713B2 (Takeda Pharmaceutical Company Limited, priority 2014, dated 2018).
